From ChEMBL document CHEMBL1201862, “PubChem BioAssay data set” (2004)
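Values below derive from 48-hour exposures of cells grown in 96-well plates, with endpoints linearly interpolated between the two concentrations bracketing the appropriate inhibition level. GI50 is the concentration that inhibits growth by half.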 Calls of active or inactive are those of the source. No stated cut-off is given here; in the data, active = GI50 up to about 1.1 µM and inactive = higher.

What was measured:
Assay in all cases: NCI anticancer screen, dose series, 48 h
[1] = tested on: M14
[2] = tested on: MOLT-4
[3] = tested on: SNB-75
[4] = tested on: HL-60
[5] = tested on: SNB-19
[6] = tested on: LOX IMVI
[7] = tested on: TK-10
[8] = tested on: NCI-H522
[9] = tested on: IGROV-1
[10] = tested on: SK-MEL-28
[11] = tested on: HCC 2998
[12] = tested on: OVCAR-4
[13] = tested on: CCRF-CEM
[14] = tested on: U-251
[15] = tested on: EKVX
[16] = tested on: A549

Measured: GI50

Nc1ccccc1SC(/C=C/NNC1=NN=C(c2ccccc2)C(c2ccccc2)N1)c1ccccc1 (stereo not drawn)
inactive: [1] 12.4 µM | [2] 3.64 µM | [3] 4.72 µM | [4] 3.32 µM | [5] 18.7 µM | [6] 12.7 µM | [7] 19 µM | [8] 3.85 µM | [9] 15.4 µM | [10] 13.7 µM | [11] 16.5 µM | [12] 14.9 µM | [13] 2.59 µM | [14] 15 µM | [15] 15.4 µM | [16] 15.2 µM

O=C1N(c2ccccc2)C2(O)C(=O)c3ccccc3C2(O)N1c1ccccc1 (stereo not drawn)
inactive: [1] > 100 µM | [2] > 100 µM | [3] > 100 µM | [5] > 100 µM | [6] > 100 µM | [7] > 100 µM | [8] > 100 µM | [9] > 100 µM | [10] > 100 µM | [11] > 100 µM | [12] > 100 µM | [13] > 100 µM | [14] > 100 µM | [15] > 100 µM | [16] > 100 µM

CCn1cc(C(=O)O)c(=O)c2cc(F)c(N3CCNCC3)nc21 [ENOXACIN]
inactive: [1] > 100 µM | [2] 67.1 µM | [3] > 100 µM | [4] > 100 µM | [5] > 100 µM | [6] 86.3 µM | [7] > 100 µM | [8] 24.4 µM | [9] > 100 µM | [10] > 100 µM | [11] > 100 µM | [12] > 100 µM | [13] > 100 µM | [14] 66.7 µM | [15] > 100 µM | [16] > 100 µM

O=C1c2ccccc2S[C@@H](O)[C@@H]2CCCN12
inactive: [1] > 100 µM | [2] > 100 µM | [4] > 100 µM | [5] > 100 µM | [6] > 100 µM | [7] > 100 µM | [8] > 100 µM | [9] 21.9 µM | [10] > 100 µM | [11] > 100 µM | [13] > 100 µM | [14] > 100 µM | [15] > 100 µM | [16] > 100 µM

COC(=O)NN=C1C(C)(C)C(=NNC(=O)OC)C1(C)C
inactive: [1] > 100 µM | [2] > 100 µM | [3] > 100 µM | [4] > 100 µM | [5] > 100 µM | [6] > 35.8 µM | [7] > 100 µM | [8] > 61.4 µM | [9] > 100 µM | [10] > 100 µM | [11] > 100 µM | [12] > 100 µM | [13] > 44.9 µM | [14] > 62.7 µM | [15] > 100 µM | [16] > 100 µM

Cc1cc(C)cc(-n2c3nc(=O)n(C)c(=O)c-3nc3ccccc32)c1
inactive: [1] 27 µM | [2] 23 µM | [3] 34.9 µM | [5] 22.1 µM | [6] 29.3 µM | [7] 42.3 µM | [8] 17.5 µM | [9] 36.1 µM | [11] 18.1 µM | [12] 18.5 µM | [13] 23.2 µM | [14] 21.8 µM | [15] 17.7 µM | [16] 26.7 µM

Cc1ccc(C2=[N+]([O-])c3ccccc3C2=O)cc1
inactive: [1] 21.7 µM | [2] 24.7 µM | [3] 44.4 µM | [4] 7.98 µM | [5] 31.9 µM | [6] 16.8 µM | [7] > 31.6 µM | [8] 15.8 µM | [9] 15.7 µM | [10] 15.8 µM | [11] > 51.3 µM | [13] 11.9 µM | [14] 19 µM | [15] 24.7 µM | [16] 46.7 µM

COC(=O)C1=CNC(C(=O)OC)=NN1
inactive: [1] > 100 µM | [2] > 100 µM | [3] > 100 µM | [4] > 100 µM | [5] > 100 µM | [7] > 100 µM | [8] > 100 µM | [9] > 100 µM | [10] > 100 µM | [12] > 100 µM | [13] > 100 µM | [14] > 100 µM | [15] > 10 µM | [16] > 100 µM

Clc1ccc(C[P+]2(c3ccccc3)CCCCC2)cc1.[O-][Cl+3]([O-])([O-])[O-]
inactive: [1] 53.8 µM | [2] 86.5 µM | [3] 37.1 µM | [4] 24.4 µM | [5] 66.8 µM | [6] 77.3 µM | [7] 77.8 µM | [8] 28.8 µM | [9] > 100 µM | [10] 62.8 µM | [11] 43.6 µM | [13] 75.9 µM | [14] 45.5 µM | [15] > 100 µM | [16] > 100 µM

CCC1CC2C(=O)N(c3ccccc3)C(=O)C2c2[nH]c3ccccc3c21 (stereo not drawn)
inactive: [1] 17.1 µM | [2] 20.2 µM | [3] 3.08 µM | [4] 21.6 µM | [5] 22.9 µM | [6] 17.1 µM | [7] 31.9 µM | [9] 6.43 µM | [10] 38.6 µM | [11] 29.3 µM | [12] 4.61 µM | [13] 26.9 µM | [14] 28.5 µM | [15] 23.2 µM | [16] 24.6 µM

Cc1cc(NS(=O)(=O)c2ccc(NC(=O)c3cccc4c(Nc5ccc(S(=O)(=O)N=C(N)N)cc5)c5ccccc5nc34)cc2)no1
inactive: [1] > 100 µM | [2] > 100 µM | [3] > 100 µM | [4] > 100 µM | [5] > 100 µM | [6] > 100 µM | [7] > 100 µM | [8] > 100 µM | [9] > 100 µM | [10] > 100 µM | [11] > 100 µM | [12] > 100 µM | [14] > 100 µM | [15] > 100 µM | [16] > 100 µM

C/C(=N\NC(=S)N(C)C)c1ncc[nH]1
inactive: [1] 2.31 µM | [2] 3.06 µM | [3] 7.57 µM | [4] 2.63 µM | [5] 4.42 µM | [6] 3.08 µM | [7] 13.3 µM | [8] 2.62 µM | [9] 2.78 µM | [10] 7.48 µM | [11] 3.52 µM | [13] 2.82 µM | [14] 2.23 µM | [15] 4.51 µM | [16] 3.38 µM

O=[N+]([O-])c1cc(C2SCc3nc4ccccc4n32)ccc1Cl (stereo not drawn)
inactive: [2] 31.3 µM | [3] 28.7 µM | [4] 16 µM | [5] 45.9 µM | [7] 47.5 µM | [8] 20 µM | [9] 45.9 µM | [10] 25.9 µM | [11] 18.4 µM | [13] 24.9 µM | [14] 27.2 µM | [15] 31.4 µM | [16] 33.1 µM
